Measurements as given in PMC3366211, “Leishmanicidal Activity of Nine Novel Flavonoids from Delphinium staphisagria” (The Scientific World Journal, 2012).
Where two headings read alike, the source gives them in different places.

How the values were obtained:
[1] = tested on: L. infantum promastigotes; test: Ultrastructural alterations (TEM); type: cell-based, Leishmania infantum; conditions: IC25, 96 hours
Description: (§1) The parasites were cultured at a density of 5 × 10^5 cells/mL in MTL medium, and the cultures contained drugs at the IC25 concentration.
(§2) After 96 hours, those cultures were centrifuged at 400 g for 10 min, and the pellets produced were washed in PBS and then mixed with 2% (v/v) P-formaldehyde-glutaraldehyde in 0.05 M cacodylate buffer (pH 7.4) for 4 hours at 4°C. After that, the pellets were prepared for TEM employing the technique of González et al..

J774.2 macrophages = test: Cytotoxicity test for macrophages (flow cytometry); type: cell-based, BALB/c rat; conditions: J774.2 macrophages after 72 h of culture, read-out: Macrophage toxicity IC50
Description: J774.2 macrophages (ECACC number 91051511) were originally obtained from a tumour in a female BALB/c […] in 1968. The cytotoxicity test for macrophages was performed according to the methodology of González et al.. After 72 hours of treatment, cell viability was determined by flow cytometry. Thus, 100 μL/well of propidium iodide solution ([…]) was added and incubated for 10 min at 28°C in darkness. Afterwards, 100 μL/well of fluorescein diacetate (100 ng/mL) was added and incubated under the same conditions. Finally, the cells were recovered by centrifugation at 400 g for 10 min and the precipitate washed with phosphate buffered saline (PBS). Flow cytometric analysis was performed with a FACSVantage flow cytometer (Becton Dickinson). The percentage viability was calculated in comparison with the control culture. The IC50 was calculated using linear regression analysis from the Kc values of the concentrations employed.

[2] = tested on: L. braziliensis promastigotes; test: Ultrastructural alterations (TEM); type: cell-based, Leishmania braziliensis; conditions: IC25, 96 hours
Description: as §1, §2

L. braziliensis = test: Infection assay in J774.2 macrophages; type: cell-based, Leishmania braziliensis; conditions: IC25 concentration; for infection rate decrease, percentage of inhibition capacity: with respect to control
Description: (§3) J774.2 macrophage cells were grown under the same conditions expressed in amastigote forms assay during two days. Afterwards, the cells were infected in vitro with promastigote forms of L. infantum and L. braziliensis, at a ratio of 10 : 1. The drugs (IC25 concentrations) were added immediately after infection and were incubated for 12 hours at 37°C in 5% CO2. The nonphagocytosed parasites and the drugs were removed by washing, and then the infected cultures were grown for 10 days in fresh medium. Fresh culture medium was added every 48 h. The drug activity was determined from the percentage of infected cells and the number of amastigotes per infected cell (in treated and untreated cultures) in methanol-fixed and Giemsa-stained preparations. The percentage of infected cells and the mean number of amastigotes per infected cell were determined by analyzing 200 host cells distributed in randomly chosen microscopic fields. Values are the average of three separate determinations.

[3] = tested on: L. braziliensis intracellular amastigote forms; test: Intracellular amastigote forms assay in J774.2 macrophages; type: cell-based, Leishmania braziliensis; conditions: for IC50: L. braziliensis in J774.2 macrophages, 72 h; for SI Intracellular amastigote forms / number of times that compound SI exceeds the reference drug SI, Intracellular amastigote forms: L. braziliensis; for SI Intracellular amastigote forms: IC50 macrophages/IC50 parasite form; for number of times that compound SI exceeds the reference drug SI, Intracellular amastigote forms: in brackets, reference Glucantime
Description: (§4) Cells were seeded at a density of 1 × 10^4 cells/well in 24-well microplates (Nunc) with rounded coverslips on the bottom and cultured for 2 days. Afterwards the cells were infected in vitro with promastigote forms of L. infantum and L. braziliensis, at a ratio of 10 : 1 during 24 hours. The non-phagocytosed parasites were removed by washing, and then the drugs (at 1, 10, 25, 50, 100 μM) were added. Macrophages with the drugs were incubated for 72 hours at 37°C in 5% CO2.
(§5) Drug activity was determined on the basis of number of amastigotes in treated and untreated cultures in methanol-fixed and Giemsa-stained preparations. The number of amastigotes was determined by analyzing 200 host cells distributed in randomly chosen microscopic fields. The antileishmanial effect is expressed as the IC50 values are the means of three separate determinations.

L. infantum = test: Infection assay in J774.2 macrophages; type: cell-based, Leishmania infantum; conditions: IC25 concentration; for infection rate decrease, percentage of inhibition capacity: with respect to control
Description: as §3

[4] = tested on: L. braziliensis promastigote forms; test: Promastigote forms assay; type: cell-based, Leishmania braziliensis; conditions: for IC50: 72 h; for SI Promastigote forms: IC50 macrophages/IC50 parasite form; for number of times that compound SI exceeds the reference drug SI, Promastigote forms: in brackets, reference Glucantime
Description: (§6) The compounds obtained were dissolved in the culture medium, at dosages of 100, 50, 25, 10, and 1 μM. The effects of each compound against promastigote forms were tested at 72 hours using a Neubauer haemocytometric chamber. The antileishmanial effect is expressed as the IC50, that is, the concentration required to give 50% inhibition, calculated by linear regression analysis from the Kc values of the concentrations employed.

[5] = tested on: L. infantum intracellular amastigote forms; test: Intracellular amastigote forms assay in J774.2 macrophages; type: cell-based, Leishmania infantum; conditions: for SI Intracellular amastigote forms / number of times that compound SI exceeds the reference drug SI, Intracellular amastigote forms: L. infantum; for SI Intracellular amastigote forms: IC50 macrophages/IC50 parasite form; for number of times that compound SI exceeds the reference drug SI, Intracellular amastigote forms: in brackets, reference Glucantime
Description: as §4, §5

[6] = tested on: L. braziliensis axenic amastigote forms; test: Axenic amastigote forms assay; type: cell-based, Leishmania braziliensis; conditions: for IC50: 48 hours per method (72 h); for SI Axenic amastigote forms: IC50 macrophages/IC50 parasite form; for number of times that compound SI exceeds the reference drug SI, Axenic amastigote forms: in brackets, reference Glucantime
Description: (§7) Axenic amastigotes forms of L. infantum and L. braziliensis were cultured following the methodology described previously by Moreno et al.. Thus, promastigote transformation to amastigotes was obtained after three days of culture in M199 medium (Invitrogen, Leiden, The Netherlands) supplemented with 10% heat-inactivated FCS, 1 g/L β-alanine, 100 mg/L L-asparagine, 200 mg/L sacarose, 50 mg/L sodium pyruvate, 320 mg/L malic acid, 40 mg/L fumaric acid, 70 mg/L succinic acid, 200 mg/L α-ketoglutaric acid, 300 mg/L citric acid, 1.1 g/L sodium bicarbonate, 5 g/L MES, 0.4 mg/L hemin, and 10 mg/L gentamicin pH 5.4 at 37°C. The effect of each compound against axenic amastigotes forms was tested at 48 hours using a Neubauer haemocytometric chamber. The antileishmanial effect is expressed as the IC50.

[7] = tested on: L. infantum axenic amastigote forms; test: Axenic amastigote forms assay; type: cell-based, Leishmania infantum; conditions: for IC50: 48 hours per method (72 h); for SI Axenic amastigote forms: IC50 macrophages/IC50 parasite form; for number of times that compound SI exceeds the reference drug SI, Axenic amastigote forms: in brackets, reference Glucantime
Description: as §7

[8] = tested on: L. infantum promastigote forms; test: Promastigote forms assay; type: cell-based, Leishmania infantum; conditions: for IC50: 72 h; for SI Promastigote forms: IC50 macrophages/IC50 parasite form; for times SI exceeds the reference drug SI (all forms): extracellular and intracellular forms; for times SI exceeds the reference drug SI (all forms) / number of times that compound SI exceeds the reference drug SI, Promastigote forms: reference Glucantime; for number of times that compound SI exceeds the reference drug SI, Promastigote forms: in brackets
Description: as §6

[9] = tested on: L. infantum promastigotes; test: Metabolite excretion (1H-NMR); type: cell-based, Leishmania infantum; conditions: IC25, 96 hours, vs control
Description: (§8) Cultures of L. infantum and L. braziliensis promastigotes (initial concentration 5 × 10^5 cells/mL) received IC25 concentrations of the compounds (except for control cultures). After incubation for 96 hours at 28°C, the cells were centrifuged at 400 g for 10 min. Then supernatants were collected to determine the excreted metabolites using ^1H-NMR, and, eventually, chemical displacements were expressed in parts per million (ppm), using sodium 2,2-dimethyl-2-silapentane-5-sulphonate as the reference signal. The chemical displacements used to identify the respective metabolites were consistent with those described by Fernández-Becerra et al.

[10] = tested on: L. braziliensis promastigotes; test: Metabolite excretion (1H-NMR); type: cell-based, Leishmania braziliensis; conditions: IC25, 96 hours, vs control
Description: as §8

Row | Compound | ultrastructural alterations by TEM [1] | decrease of average number of amastigotes per infected macrophage cell (L. braziliensis) | infection rate decrease, percentage of inhibition capacity (L. braziliensis) | SI Intracellular amastigote forms [3] | number of times that compound SI exceeds the reference drug SI, Intracellular amastigote forms [3] | decrease of average number of amastigotes per infected macrophage cell (L. infantum) | infection rate decrease, percentage of inhibition capacity (L. infantum) | SI Promastigote forms [4] | number of times that compound SI exceeds the reference drug SI, Promastigote forms [4] | SI Intracellular amastigote forms [5] | number of times that compound SI exceeds the reference drug SI, Intracellular amastigote forms [5] | SI Axenic amastigote forms [6] | number of times that compound SI exceeds the reference drug SI, Axenic amastigote forms [6] | SI Axenic amastigote forms [7] | number of times that compound SI exceeds the reference drug SI, Axenic amastigote forms [7] | SI Promastigote forms [8] | times SI exceeds the reference drug SI (all forms) [8] | number of times that compound SI exceeds the reference drug SI, Promastigote forms [8] | change in excreted catabolites [9] | also measured
1 | paeonoside [Compound 4] | many of the parasites appeared dead, while another showed pronounced vacuolization | 61% | 68% | 30.6 | 61 | 37% | 77% | 35.6 | 59 | 31.8 | 64 | 42.2 | 84 | 37.2 | 62 | 39.8 | more than 50 times | 50 | an increase in the excretion of succinate, and acetate, followed by malate, alanine, lactate and ethanol | IC50 (J774.2 macrophages): > 1000 µM; ultrastructural alterations by TEM [2]: expansion of the kinetoplast, which appeared swollen; IC50 [3]: 32.7 ± 2.1 µM; IC50 [4]: 28.1 ± 5.2 µM; IC50 ([5]; L. infantum in J774.2 macrophages, 72 h): 31.4 ± 2 µM; IC50 [6]: 23.7 ± 2.1 µM; IC50 [7]: 26.9 ± 1.4 µM; IC50 [8]: 25.1 ± 1.9 µM
2 | CC(=O)OC[C@H]1O[C@@H](Oc2cc(OC(C)=O)c3c(=O)c(O[C@@H]4O[C@H](COC(C)=O)[C@@H](OC(C)=O)[C@H](OC(C)=O)[C@H]4OC(C)=O)c(-c4ccc(OC(C)=O)cc4)oc3c2)[C@H](OC(C)=O)[C@@H](OC(C)=O)[C@@H]1OC(C)=O [Compound 6] | induced empty vacuoles, lipid vacuoles, and a large number of electrodense vesicles | 69% | 82% | >32.9 | 66 | 24% | 71% | >31.9 | 53 | 24.8 | 50 | >35.7 | 71 | >32.8 | 55 | >43.3 | more than 50 times | 54 | an increase in the excretion of succinate, and acetate, followed by malate, alanine, lactate and ethanol | IC50 (J774.2 macrophages; Mus musculus, J774.2, 72 h): > 1000 µM; change in excreted catabolites [10]: decreases in the excretion of acetate; IC50 ([3]; Leishmania braziliensis): 30.4 ± 2.7 µM; IC50 ([4]; Leishmania braziliensis): 31.3 ± 3 µM; IC50 ([6]; Leishmania braziliensis): 28 ± 1.6 µM; IC50 ([7]; Leishmania infantum): 30.5 ± 2.3 µM; IC50 ([8]; Leishmania infantum): 23.1 ± 4.6 µM
